Source: publication PMC9000336, “Development of Bicyclo[3.1.0]hexane-Based A3 Receptor Ligands: Closing the Gaps in the Structure–Affinity Relationships” (Molecules, 2022)
Where two headings read alike, the source gives them in different places.

Target: T1, hA2B receptor (Homo sapiens, UniProt P29275)
T1 construct: expressed in transfected cells; host or cells: CHO-spap cells (CHO-spap-hA2BR), from S. J. Dowell (GlaxoSmithKline); membrane preparation
T1 sequence (P29275 1-332): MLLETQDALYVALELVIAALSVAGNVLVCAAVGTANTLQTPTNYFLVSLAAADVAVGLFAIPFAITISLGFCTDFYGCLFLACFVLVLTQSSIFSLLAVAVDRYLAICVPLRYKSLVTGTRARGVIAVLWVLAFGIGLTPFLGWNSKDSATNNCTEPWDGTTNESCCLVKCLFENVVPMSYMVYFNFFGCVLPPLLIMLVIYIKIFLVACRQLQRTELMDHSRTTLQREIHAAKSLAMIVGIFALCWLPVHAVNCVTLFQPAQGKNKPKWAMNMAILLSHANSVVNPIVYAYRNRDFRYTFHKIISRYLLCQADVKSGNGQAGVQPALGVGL
Assay: Radioligand displacement assay, human adenosine A2B receptor ([3H]PSB-603, CHO-spap-hA2BR membranes)
Type: binding
Conditions: for A2B displacement at 1 µM: footnote a: test compound 1 µM
Method: Human embryonic kidney 293 cells stably expressing the human adenosine A2A receptor (HEK293hA2AR) were kindly provided by Dr. J. Wang (Biogen/IDEC, Cambridge, MA, USA), CHO-spap cells stably expressing the wild-type (WT) hA2B receptor (CHO-spap-hA2BR) were kindly provided by S. J. Dowell (GlaxoSmithKline, Brentfort, UK).
Chinese hamster ovary cells stably expressing the […] and a reporter gene, the secreted placental alkaline phosphatase, (CHO-spap-hA2BR) were grown in DMEM and Ham’s F12 medium (1:1) supplemented with 10% (v/v) newborn calf serum, 100 µg/mL streptomycin, 100 IU/mL penicillin, 1 mg/mL G418, and 0.4 mg/mL hygromycin at 37 °C and 5% CO2.
All cells were grown to 80–90% confluency and detached from plates by scraping them into 5 mL phosphate-buffered saline. Detached cells were collected and centrifuged at 200 g for 5 min. Pellets derived from 100 15 cm Ø plates were pooled and resuspended in 70 mL of ice-cold 50 mM tris(hydroxymethyl)aminomethane (Tris)-HCl buffer, pH 7.4. A Heidolph Diax 900 homogenizer was used to homogenize the cell suspension. Membranes and the cytosolic fraction were separated by centrifugation at 100,000 g in a Beckman Optima LE-80 K ultracentrifuge (Beckman Coulter, Fullerton, CA, USA) at 4 °C for 20 min. The pellet was resuspended in 35 mL of the Tris-HCl buffer, and the homogenization and centrifugation steps were repeated. Tris-HCl buffer (25 mL) was used to resuspend the pellet, and adenosine deaminase (ADA) was added (0.8 U/mL) to break down endogenous adenosine. Membranes were stored in 250 µL and 500 µL aliquots at −80 °C. Total protein concentrations were measured using the bicinchoninic acid (BCA) method.
A2B Receptor: Membrane aliquots containing 30 µg (CHO-spap-hA2BR) total protein were incubated in a total volume of 100 µL assay buffer (0.1% CHAPS in 50 mM TrisHCl, pH 7.4) at 25 °C for 2 h. […] Nonspecific binding was determined in the presence of 10 µM ZM241385. Incubations were terminated by rapid vacuum filtration to separate the bound and free radioligand through prewetted 96-well GF/B filter plates using a PerkinElmer Filtermate-harvester (Perkin Elmer, Groningen, the Netherlands). Filters were subsequently washed 12 times with ice-cold 0.1% BSA in 50 mM Tris-HCl, pH 7.4.
The plates of all four adenosine receptor assays were dried at 55 °C after which MicroscintTM-20-cocktail was added (Perkin Elmer, Groningen, The Netherlands).
All experimental data were analyzed using the non-linear regression curve fitting program GraphPad Prism 7.0 (GraphPad Software Inc., San Diego, CA, USA). IC50 values obtained from competition displacement binding data were converted into Ki values using the Cheng–Prusoff equation.

[1] = n = 3, [3H]PSB-603, read-out: A2B Ki ± SEM
[2] = footnote a: tested at 1 µM, n = 3, read-out: A2B Ki (bound, footnote a)

## Nc1cc(Cl)c2ncn([C@H]3[C@H](O)[C@H](O)[C@]4(CO)C[C@H]34)c2n1 [Compound 11, (1R,2R,3S,4R,5S)-4-(5-Amino-7-chloro-3H-imidazo[4,5-b]pyridin-3-yl)-1-(hydroxymethyl)bicyclo[3.1.0]hexane-2,3-diol]
[1]
  Ki: > 10 µM

## OC[C@@]12C[C@@H]1[C@@H](n1cnc3c(Cl)cc(Cl)nc31)[C@H](O)[C@@H]2O [Compound 12, (1R,2R,3S,4R,5S)-4-(5,7-Dichloro-3H-imidazo[4,5-b]pyridin-3-yl)-1-(hydroxymethyl)bicyclo[3.1.0]hexane-2,3-diol]
[1]
  Ki: > 10 µM

## OC[C@@]12C[C@@H]1[C@@H](n1cnc3c(NCc4ccccc4)cc(Cl)nc31)[C@H](O)[C@@H]2O [Compound 13, (1R,2R,3S,4R,5S)-4-[7-(Benzylamino)-5-chloro-3H-imidazo[4,5-b]pyridin-3-yl]-1-(hydroxymethyl)bicyclo[3.1.0]hexane-2,3-diol]
[1]
  Ki: > 10 µM

## CSc1cc(NCc2ccccc2)c2ncn([C@H]3[C@H](O)[C@H](O)[C@]4(CO)C[C@H]34)c2n1 [Compound 14, (1R,2R,3S,4R,5S)-4-[7-(Benzylamino)-5-methylthio-3H-imidazo[4,5-b]pyridin-3-yl]-1-(hydroxymethyl)bicyclo[3.1.0]hexane-2,3-diol]
[1]
  Ki: > 10 µM

## COc1ccc(CNc2cc(Cl)nc3c2ncn3[C@H]2[C@H](O)[C@H](O)[C@]3(CO)C[C@H]23)cc1 [Compound 15, (1R,2R,3S,4R,5S)-4-{5-Chloro-7-[(4-methoxy)benzylamino]-3H-imidazo[4,5-b]pyridin-3-yl}-1-(hydroxymethyl)bicyclo[3.1.0]hexane-2,3-diol]
[1]
  Ki: > 10 µM

## Nc1cc(Cl)nc2c1ncn2[C@H]1[C@H](O)[C@H](O)[C@]2(CO)C[C@H]12 [Compound 16, (1R,2R,3S,4R,5S)-4-(7-Amino-5-chloro-3H-imidazo[4,5-b]pyridin-3-yl)-1-(hydroxymethyl)bicyclo[3.1.0]hexane-2,3-diol]
[1]
  Ki: > 10 µM

## CSc1cc(N)c2ncn([C@H]3[C@H](O)[C@H](O)[C@]4(CO)C[C@H]34)c2n1 [Compound 17, (1R,2R,3S,4R,5S)-4-(7-Amino-5-methylthio-3H-imidazo[4,5-b]pyridin-3-yl)-1-(hydroxymethyl)bicyclo[3.1.0]hexane-2,3-diol]
[1]
  Ki: > 10 µM

## OC[C@@]12C[C@@H]1[C@@H](n1cnc3c(N(Cc4ccccc4)Cc4ccccc4)ncnc31)[C@H](O)[C@@H]2O [Compound 26, (1R,2R,3S,4R,5S)-4-[6-(Dibenzylamino)-9H-purin-9-yl]-1-(hydroxymethyl)bicyclo[3.1.0]hexane-2,3-diol]
Test compound 10 µM, n = 3
  A2B displacement at 10 µM: 12%

## OC[C@@]12C[C@@H]1[C@@H](n1cnc3c(N(Cc4ccccc4)Cc4ccccc4)nc(Cl)nc31)[C@H](O)[C@@H]2O [Compound 27, (1R,2R,3S,4R,5S)-4-[6-(Dibenzylamino)-2-chloro-9H-purin-9-yl]-1-(hydroxymethyl)bicyclo[3.1.0]hexane-2,3-diol]
[1]
  Ki: > 10 µM

## CSc1nc(N(Cc2ccccc2)Cc2ccccc2)c2ncn([C@H]3[C@H](O)[C@H](O)[C@]4(CO)C[C@H]34)c2n1 [Compound 30, (1R,2R,3S,4R,5S)-4-[6-(Dibenzylamino)-2-methylthio-9H-purin-9-yl]-1-(hydroxymethyl)bicyclo[3.1.0]hexane-2,3-diol]
[1]
  Ki: > 10 µM

## CSc1nc(N(Cc2ccccc2)Cc2ccccc2)c2ncn([C@H]3[C@H](O)[C@H](O)[C@]4(CCl)C[C@H]34)c2n1 [Compound 31, (1S,2R,3S,4R,5S)-4-[6-(Dibenzylamino)-2-methylthio-9H-purin-9-yl]-1-(chloromethyl)bicyclo[3.1.0]hexane-2,3-diol]
[1]
  Ki: > 10 µM

## Nc1ncnc2c1ncn2[C@H]1[C@H](O)[C@H](O)[C@]2(CO)C[C@H]12 [Compound 36, (N)-methanocarba adenosine]
  affinity at the A2B subtype: no affinity
[1]
  Ki: > 10 µM

## CSc1nc(N)c2ncn([C@H]3[C@H](O)[C@H](O)[C@]4(Cn5cc(CO)nn5)C[C@H]34)c2n1 [Compound 39, (1R,2R,3S,4R,5S)-4-(6-Amino-2-methylthio-9H-purin-9-yl)-1-{[4-(hydroxymethyl)-1H-1,2,3-triazol-1-yl]methyl}bicyclo[3.1.0]hexane-2,3-diol]
[1]
  Ki: > 10 µM

## COC(=O)c1cn(C[C@@]23C[C@@H]2[C@@H](n2cnc4c(N)nc(SC)nc42)[C@H](O)[C@@H]3O)nn1 [Compound 40, Methyl 1-{[(1R,2R,3S,4R,5S)-4-(6-amino-2-methylthio-9H-purin-9-yl)-2,3-dihydroxybicyclo[3.1.0]hex-1-yl]methyl}-1H-1,2,3-triazole-4-carboxylate]
[1]
  Ki: > 10 µM

## COC(=O)Cc1cn(C[C@@]23C[C@@H]2[C@@H](n2cnc4c(N)nc(SC)nc42)[C@H](O)[C@@H]3O)nn1 [Compound 41, Methyl 2-(1-{[(1R,2R,3S,4R,5S)-4-(6-amino-2-methylthio-9H-purin-9-yl)-2,3-dihydroxybicyclo[3.1.0]hex-1-yl]methyl}-1H-1,2,3-triazol-4-yl)acetate]
[2]
  Ki: > 1 µM

## COC(=O)CCc1cn(C[C@@]23C[C@@H]2[C@@H](n2cnc4c(N)nc(SC)nc42)[C@H](O)[C@@H]3O)nn1 [Compound 42, Methyl 3-(1-{[(1R,2R,3S,4R,5S)-4-(6-amino-2-methylthio-9H-purin-9-yl)-2,3-dihydroxybicyclo[3.1.0]hex-1-yl]methyl}-1H-1,2,3-triazol-4-yl)propanoate]
[1]
  Ki: > 10 µM

## CSc1nc(N)c2ncn([C@H]3[C@H](O)[C@H](O)[C@]4(Cn5cc(CN)nn5)C[C@H]34)c2n1 [Compound 43, (1R,2R,3S,4R,5S)-4-(6-Amino-2-methylthio-9H-purin-9-yl)-1-{[4-(aminomethyl)-1H-1,2,3-triazol-1-yl]methyl}bicyclo[3.1.0]hexane-2,3-diol]
[1]
  Ki: > 10 µM

## CSc1nc(N)c2ncn([C@H]3[C@H](O)[C@H](O)[C@]4(Cn5cc(C(=O)O)nn5)C[C@H]34)c2n1 [Compound 44, 1-{[(1R,2R,3S,4R,5S)-4-(6-Amino-2-methylthio-9H-purin-9-yl)-2,3-dihydroxybicyclo[3.1.0]hex-1-yl]methyl}-1H-1,2,3-triazole-4-carboxylic acid]
N = 3
  A2B displacement at 1 µM: 2% ^a

## CSc1nc(N)c2ncn([C@H]3[C@H](O)[C@H](O)[C@]4(Cn5cc(CC(=O)O)nn5)C[C@H]34)c2n1 [Compound 45, 2-(1-{[(1R,2R,3S,4R,5S)-4-(6-Amino-2-methylthio-9H-purin-9-yl)-2,3-dihydroxybicyclo[3.1.0]hex-1-yl]methyl}-1H-1,2,3-triazol-4-yl)acetic acid]
N = 3
  A2B displacement at 1 µM: 5% ^a

## CSc1nc(N)c2ncn([C@H]3[C@H](O)[C@H](O)[C@]4(Cn5cc(CCC(=O)O)nn5)C[C@H]34)c2n1 [Compound 46]
N = 3
  A2B displacement at 1 µM: 1% ^a

## CCN(CC)CC.CSc1nc(N)c2ncn([C@H]3[C@H](O)[C@H](O)[C@]4(CNc5c(O)c(=O)c5=O)C[C@H]34)c2n1 [Compound 47, Triethylammonium 2-{[(1R,2R,3S,4R,5S)-4-(6-Amino-2-methylthio-9H-purin-9-yl)-2,3-dihydroxybicyclo[3.1.0]hex-1-yl]methyl}amino-3,4-dioxocyclobut-1-en-1-olate]
[2]
  Ki: > 1 µM

## CCN(CC)CC.CSc1nc(N)c2ncn([C@H]3[C@H](O)[C@H](O)[C@]4(CNS(=O)(=O)CC(=O)O)C[C@H]34)c2n1 [Compound 48, Triethylammonium 2-(N-{[(1R,2R,3S,4R,5S)-4-(6-amino-2-methylthio-9H-purin-9-yl)-2,3-dihydroxybicyclo[3.1.0]hex-1-yl]methyl}sulfamoyl)acetate]
[2]
  Ki: > 1 µM
